In one data set the test system is rgRSV224 virus. Nature of the data set: microbe, parasite or virus in culture. To be noted: human respiratory syncytial virus, HeLa, 72 h, read-out: RSV HELA pEC50 (converted). It counts as cell-based, respiratory syncytial virus (RSV).

These results are taken from patent publication US10131673B2, “Piperidine substituted tricyclic pyrazolo[1,5-a]pyrimidine derivatives with inhibitory activity on the replication of the respiratory syncytial virus (RSV)” (priority 2014, dated 2018).

Experimental for HeLa cells: Black 384-well clear-bottom microtiter plates (Corning, Amsterdam, The Netherlands) were filled via acoustic drop ejection using the echo liquid handler (Labcyte, Sunnyvale, Calif.). 200 nL of compound stock solutions (100% DMSO) were transferred to the assay plates. 9 serial 4-fold dilutions of compound were made, creating per quadrant the same compound concentration. The assay was initiated by adding 10 μL of culture medium to each well (RPMI medium without phenol red, 10% FBS-heat inactivated, 0.04% gentamycin (50 mg/mL). All addition steps are done by using a multidrop dispenser (Thermo Scientific, Erembodegem, Belgium). Next, rgRSV224 virus (MOI=1) diluted in culture medium was added to the plates. rgRSV224 virus is an engineered virus that includes an additional GFP gene (Hallak L K, Spillmann D, Collins P L, Peeples M E. Glycosaminoglycan sulfation requirements for respiratory syncytial virus infection; Journal of virology (2000), 74(22), 10508-13) and was in-licensed from the NIH (Bethesda, Md., USA). Finally, 20 μL of a HeLa cell suspension (3,000 cells/well) were plated. Medium, virus- and mock-infected controls were included in each test. The wells contain 0.05% DMSO per volume. Cells were incubated at 37° C. in a 5% CO2 atmosphere. Three days post-virus exposure, viral replication was quantified by measuring GFP expression in the cells by an in house developed MSM laser microscope (Tibotec, Beerse, Belgium). The EC50 was defined as the 50% inhibitory concentration for GFP expression. In parallel, compounds were incubated for three days in a set of white 384-well microtiter plates (Corning) and the cytotoxicity of compounds in HeLa cells was determined by measuring the ATP content of the cells using the ATPlite kit (Perkin Elmer, Zaventem, Belgium) according to the manufacturer's instructions. The CC50 was defined as the 50% concentration for cytotoxicity.

Turning to `Fc1cccc2ncnc(N3CCCCC3c3cc4nc5c(c(N6CCOCC6)n4n3)CCCC5)c12` (stereo not shown) [Compound P10, 4-(2-(1-(5-fluoroquinazolin-4-yl)piperidin-2-yl)-5,6,7,8-tetrahydropyrazolo-[5,1-b]quinazolin-9-yl)morpholine], the EC50 with rgRSV224 virus is 891 nM. For the same compound, the “TOX HELA pCC50” value in the data set on HeLa cells amounted to 4.6.
As to `FC(F)(F)c1cccc2ncnc(N3CCCCC3c3cc4nc5c(c(N6CCOCC6)n4n3)CCCC5)c12` (stereo not shown) [Compound P11, 4-(2-(1-(5-(trifluoromethyl)quinazolin-4-yl)piperidin-2-yl)-5,6,7,8-tetrahydropyrazolo[5,1-b]quinazolin-9-yl)morpholine], the EC50 with rgRSV224 virus was 676 nM. Moreover, the “TOX HELA pCC50” value with HeLa cells turned out to be 4.7.
In the case of `COc1cccc2ncnc(N3CCCCC3c3cc4nc5c(c(N6CCOCC6)n4n3)CCCC5)c12` (stereo not shown) [Compound P12, 4-(2-(1-(5-methoxyquinazolin-4-yl)piperidin-2-yl)-5,6,7,8-tetrahydropyrazolo[5,1-b]quinazolin-9-yl)morpholine], the EC50 with rgRSV224 virus was 75.9 nM. The “TOX HELA pCC50” value in the data set on HeLa cells is 4.4.
`CCc1ccc2ncnc(N3CCCCC3c3cc4nc5c(c(N6CCOCC6)n4n3)CCCC5)c2c1C` (stereo not shown) [Compound P13, 4-(2-(1-(6-ethyl-5-methylquinazolin-4-yl)piperidin-2-yl)-5,6,7,8-tetrahydropyrazolo[5,1-b]quinazolin-9-yl)morpholine]: the EC50 in the data set on rgRSV224 virus is 724 nM. Besides, in the data set on HeLa cells, the “TOX HELA pCC50” value came to 4.7.
On to `Cc1ccc(NS(C)(=O)=O)c(C(=O)N2CCCCC2c2cc3nc4c(c(O)n3n2)CCCC4)c1` (stereo not shown) [Compound P14, N-(2-(2-(9-hydroxy-5,6,7,8-tetrahydropyrazolo[5,1-b]quinazolin-2-yl)-piperidine-1-carbonyl)-4-methylphenyl)methanesulfonamide], for which, in the data set with rgRSV224 virus, the EC50 is 40.7 nM. Besides, the “TOX HELA pCC50” value in the data set on HeLa cells is 4.3.
Regarding `Cc1ccc(NS(C)(=O)=O)c(C(=O)N2CCCCC2c2cc3nc4c(c(N(C)C)n3n2)CCCC4)c1` (stereo not shown) [Compound P15, N-(2-(2-(9-(dimethylamino)-5,6,7,8-tetrahydropyrazolo[5,1-b]quinazolin-2-yl)piperidine-1-carbonyl)-4-methylphenyl)methanesulfonamide], in the data set with rgRSV224 virus, the EC50 is 1.78 nM. Further, the “TOX HELA pCC50” value in the data set with HeLa cells was determined as 4.6.
With `Cc1cccc2ncnc(N3CCCCC3c3cc4nc5c(c(N(C)C)n4n3)CCCC5)c12` (stereo not shown) [Compound P16, N,N-dimethyl-2-(1-(5-methylquinazolin-4-yl)piperidin-2-yl)-5,6,7,8-tetrahydropyrazolo[5,1-b]quinazolin-9-amine], the EC50 with rgRSV224 virus is 407 nM. The “TOX HELA pCC50” value in the data set with HeLa cells is reported as 4.
Consider `Cc1ccc(NS(C)(=O)=O)c(C(=O)N2CCCCC2c2cc3nc4c(cn3n2)CCCC4)c1` (stereo not shown) [Compound P17, N-(4-methyl-2-(2-(5,6,7,8-tetrahydropyrazolo[5,1-b]quinazolin-2-yl)-piperidine-1-carbonyl)phenyl)methanesulfonamide], for which the EC50 with rgRSV224 virus is 97.7 nM. For the same compound, the “TOX HELA pCC50” value with HeLa cells was determined as 4.6.
For `Cc1cccc2ncnc(N3CCCCC3c3cc4nc5c(cn4n3)CCCC5)c12` (stereo not shown) [Compound P18, 2-(1-(5-methylquinazolin-4-yl)piperidin-2-yl)-5,6,7,8-tetrahydropyrazolo-[5,1-b]quinazoline] the same measures were 3890 nM and 4.3.
On to `Cc1ccc(NS(C)(=O)=O)c(C(=O)N2CCCCC2c2cc3nc4c(c(N)n3n2)CCCC4)c1` (stereo not shown) [Compound P19, N-(2-(2-(9-amino-5,6,7,8-tetrahydropyrazolo[5,1-b]quinazolin-2-yl)-piperidine-1-carbonyl)-4-methylphenyl)methanesulfonamide], for which, in the data set with rgRSV224 virus, the EC50 is 19.5 nM. In addition, the “TOX HELA pCC50” value in the data set with HeLa cells is on record as 4.3.
As to `Cc1ccc(NS(C)(=O)=O)c(C(=O)N2CCCCC2c2cc3nc4c(c(N5CCOCC5)n3n2)CCC4)c1` (stereo not shown) [Compound P20, N-(4-methyl-2-(2-(8-morpholino-6,7-dihydro-5H-cyclopenta[d]pyrazolo-[1,5-a]pyrimidin-2-yl)piperidine-1-carbonyl)phenyl)methanesulfonamide], the EC50 in the data set with rgRSV224 virus is 22.9 nM. The “TOX HELA pCC50” value with HeLa cells was determined as 4.2.
